According to article PMC6960228, “Ethoxysanguinarine, a Novel Direct Activator of AMP-Activated Protein Kinase, Induces Autophagy and Exhibits Therapeutic Potential in Breast Cancer Cells” (Frontiers in Pharmacology, 2020):

Legend:
MCF-7 = assay: MTT cytotoxicity assay; type: cell-based; conditions: Homo sapiens, MCF7, MCF-7, 24 h
Excerpt: (§1) Human BC cell lines MCF-7, MDA-MB-231, DMA-MB-436, SK-BR3, MDA-MB-468, MDA-MB-453, and MDA-MB-435S and non-tumorigenic MCF-10A human mammary epithelial cells were obtained from American Type Culture Collection (ATCC; Manassas, VA, USA). MCF-7, SK-BR3, MDA-MB-231, and MDA-MB-436 cells were maintained in Dulbecco’s modified Eagle’s medium (DMEM; high glucose; Gibco; Thermo Fisher Scientific, Inc., Waltham, MA, USA) supplemented with 10% fetal bovine serum (FBS; HyClone; Logan, UT, USA) and antibiotics and incubated in a humidified atmosphere with 5% CO2 at 37°C. MDA-MB-468, MDA-MB-453, and MDA-MB-435S cells were maintained in Leibovitz’s L-15 (Gibco) supplemented with 10% FBS and antibiotics and incubated in a humidified atmosphere without CO2 at 37°C. MCF-10A cells were maintained in DMEM/F12 medium containing 5% horse serum (HS), insulin ([…]), epidermal growth factor (EGF, 20 ng/mL), choleratoxin ([…]), hydrocortisone ([…]), penicillin (50 U/mL), and streptomycin (50 U/mL), and incubated in a humidified atmosphere with CO2 at 37°C.
(§2) Cells were seeded into 96-well plate and pre-cultured for 24 h, then treated with Eth for 24. Cell cytotoxicity was determined by MTT assay. The absorbance was measured at 490 nm by automated microplated reader (BioTek Instruments, Inc., Winooski, VT, USA), and the cell death rate was calculated as followed: inhibition rate (%) = (average A490 of the control group − average A490 of the experimental group)/(average A490 of the control group − average A490 of the blank group) × 100%. Cell viability was estimated by trypan blue dye exclusion.

MDA-MB-231 = assay: MTT cytotoxicity assay; type: cell-based; conditions: Homo sapiens, MDA-MB-231, 24 h
Excerpt: as §1, §2

MDA-MB-435S = assay: MTT cytotoxicity assay; type: cell-based; conditions: Homo sapiens, 24 h, means ± SD of quadruplicate determinations
Excerpt: as §1, §2

MDA-MB-436 = assay: MTT cytotoxicity assay; type: cell-based; conditions: Homo sapiens, MDA-MB-436, 24 h
Excerpt: as §1, §2

MDA-MB-453 = assay: MTT cytotoxicity assay; type: cell-based; conditions: Homo sapiens, MDA-MB-453, 24 h, means ± SD of quadruplicate determinations
Excerpt: as §1, §2

MDA-MB-468 = assay: MTT cytotoxicity assay; type: cell-based; conditions: Homo sapiens, MDA-MB-468, 24 h, means ± SD of quadruplicate determinations
Excerpt: as §1, §2

SK-BR3 = assay: MTT cytotoxicity assay; type: cell-based; conditions: Homo sapiens, SK-BR-3, SK-BR3, 24 h, means ± SD of quadruplicate determinations
Excerpt: as §1, §2

AMPK = AMPK activity assay (CycLex kit) in treated cells; type: cell-based, human; conditions: MCF-7, MDA-MB-231, and MDA-MB-436 cells treated with Eth
Protocol: AMPK kinase activity was assay was performed by AMPK kinase activity kit which was purchased from CycLex Co., Ltd. (Cat#CY-1182). Absorbance was measured at 450 nm.
Next we determined whether Eth modulates the activity of the AMPK kinase. For this purpose, MCF-7, MDA-MB-231, and MDA-MB-436 cells were treated with Eth and incubated for different time periods (1, 6, 12, and 24 h).
Figure 4 Eth is a direct activator of AMPK. (A): MCF-7, MDA-MB-231, or MDA-MB-436 cells were treated with increasing concentrations of Eth for 24 h, and AMPK activity assay was performed. (B): The binding mode of Eth docked into AMPK. (C): The binding mode of Eth docked into AMPK. α subunit is green, β subunit is cyan, γ subunit is magenta and Eth is gold. (D): Details of the binding site of Eth in the ADaM site of AMPK. The main residues involved in drug interactions are shown as labeled green sticks. α subunit is green, β subunit is cyan. The pSER-108 was shown in stick and colored by gold. (E) The interaction pattern of Eth with the residues. (F): The 2D representation of the AMPK crystal structure in complex with Eth. (G): Chemical structure of Eth intermediate and Biotin-labeled Eth. (H): Viability of MCF-7, MDA-MB-231 or MDA-MB-436 cells exposed to Biotin-Eth as determined by MTT assay. […]

CCOC1c2c(ccc3c2OCO3)-c2ccc3cc4c(cc3c2N1C)OCO4 (centres unmarked) [Eth, Ethoxysanguinarine]
IC50 (MCF-7): 3.29 ± 1.5 µM
IC50 (MDA-MB-231): 3.75 ± 0.94 µM
IC50 (MDA-MB-435S): 4.58 ± 0.77 µM
IC50 (MDA-MB-436): 2.63 ± 0.65 µM
IC50 (MDA-MB-453): 7.06 ± 0.59 µM
IC50 (MDA-MB-468): 6.67 ± 1.7 µM
IC50 (SK-BR3): 2.79 ± 0.39 µM
AMPK activity (AMPK): robust increase in AMPK activity
